# Patent US20090074895A1, “COMPOSITION AND USES THEREOF” (VANADIS BIOSCIENCE LTD, priority 2005, published 2009)
# Entries after “also recorded” stand apart in the source; their conditions may differ.
# Key:
# Type in all cases: in vivo, rat
# diabetic rats [1] = assay: Serum cholesterol concentrations after 7 day oral treatment of diabetic rats (lovastatin, MKH, combination); conditions: for HDL cholesterol / LDL cholesterol / LDL/HDL ratio / Total cholesterol: 7 day oral treatment, lovastatin 20 mg/kg/day, MKH 2 mg/kg/day, n = 8; for Change in total cholesterol (in words): 7 days oral treatment
# normoglycaemic rats [2] = assay: Serum cholesterol and lipid profile after 5 days treatment, normoglycaemic rats; conditions: for Change in HDL serum cholesterol concentration (in words) / Change in LDL serum cholesterol concentration versus control (in words) / Change in total cholesterol serum concentration (in words): normoglycaemic (non-diabetic) rats, 5 days treatment; for HDL serum cholesterol concentration / LDL serum cholesterol concentration / Serum total cholesterol concentration / LDL:HDL Ratio (ratios of means): normoglycaemic rats, n = 8; for HDL serum cholesterol concentration / LDL serum cholesterol concentration / Serum total cholesterol concentration: 5 days treatment orally; for LDL:HDL Ratio (ratios of means): after 5 days treatment
# Description: (§1) 1). Saline solution, 1 ml/kg, per orally, daily for 5 days (control group); 2). Stevioside, 20 mg/kg, orally, daily for 5 days; 3). Sodium salt of 3α,7α-dihydroxy-12-oxo-5β-cholanate (monoketocholic acid-MKC), 4 mg/kg, orally, daily for 5 days; and 4). 1 ml/kg of the composition described in Example 1, orally, daily for 5 days.
# (§2) 15 minutes after the 5th dose, the animals were exposed to an oral glucose tolerance test (OGTT) using 4 g/kg, orally. Glucose blood concentrations were measured before the treatment, after the 5th dose, before OGTT, and 30 minutes after OGTT. Then the animals were anaesthetised with urethane injected intraperitoneally, 750 mg/kg, and blood samples for further biochemical analyses were taken by cardiopunction.
# (§3) All biochemical analyses of serum were done by standard procedures, as recommended by the International Federation for Clinical Chemistry (IFCC), on automatic spectrophotometer LISA 300 plus with International Quality Control. The following were measured in serum:
# (§4) 1). Triglycerides concentration (GPO-PAP kit obtained from Boehringer Mannheim GmbH (Mannheim, Germany) in accordance with the manufacturers instructions) 2). Total low density lipoprotein (LDL) and high density lipoprotein (HDL) 3). Cholesterol concentration (CHOD-PAP kit obtained from Boehringer Mannheim GmbH (Mannheim, Germany) in accordance with the manufacturers instructions); and 4). C-peptide concentration.
# (§5) The composition from Example 1 was trialled to see the effect on cholesterol levels and on serum lipid profiles. Generally the desired outcome was a decrease in low density lipoprotein (LDL), with no concomitant decrease in high density lipoprotein (HDL). It was also hypothesised that there would be a compatibility with glycaemic effects shown in Example 2.
# (§6) The experimental procedures were essentially those described in Example 2.
# diabetic rats [3] = assay: C peptide serum concentration, diabetic rats; conditions: for C peptide serum concentration: doses daily for 5 days orally, n = 8
# Description: (§7) In this study white, adult male Wistar rats with average weights between 200 to 300 grams were used. During the study, the animals had free access to food and water and were exposed to changes of dark and light every 12 hours. Access to the food was restricted 12 hours before measurement of glucose blood level with free access to water.
# (§8) The experiment was performed on a normoglycaemic group (Group 1, 32 rats, 8 per treatment) and diabetic rats (Group 2, 32 rats, 8 per treatment). For the diabetic rat experiments diabetes was induced with intraperitoneal injection of alloxan 100 mg/kg. Alloxan is very well verified diabetogenic substance for inducing diabetes in rats and other animal species (rabbit, dog, mice et cetera). See, for example, McLetchie, J.R. Coll Physicians Edinb, 32: 134-142, 2002; Lenzen & Panten, Diabetologia, 31: 337-342, 1988; Shaw et al., Lancet, 11: 384-386, 1943; Goldner & Gomori, Endocrinology, 35: 241-268, 1943.
# as §1
# (§9) In the diabetic rat the criterion for successful diabetes induction was blood glucose greater than 20 mmol/L on the third day after the last alloxan dose after 3 hours of fasting with free access to water.
# 15 minutes after the 5th dose, the animals were exposed to an oral glucose tolerance test (OGTT) using 4 g/kg, orally. Glucose blood concentrations were measured before the treatment, after the 5th dose, before OGTT, and 30 minutes after OGTT. […]
# All biochemical analyses of serum were done by standard procedures, as recommended by the International Federation for Clinical Chemistry (IFCC), on automatic spectrophotometer LISA 300 plus with International Quality Control. The following were measured in serum: […]
# diabetic rats [4] = assay: Serum cholesterol and lipid profile after 5 days treatment, diabetic rats; conditions: for HDL cholesterol serum concentration / LDL cholesterol serum concentration / Serum total cholesterol concentration: 5 days treatment orally; for HDL cholesterol serum concentration / LDL cholesterol serum concentration / Serum total cholesterol concentration / LDL:HDL Ratio (ratios of means): n = 8; for LDL:HDL Ratio (ratios of means): after 5 days treatment
# Description: as §8, §1, §2, §3, §4, §5, §6
# [5] = test system: normoglycaemic Wistar rats; assay: Blood glucose and oral glucose tolerance test (OGTT) after 5 days oral treatment, normoglycaemic rats; conditions: n = 8; for Glucose blood concentration, After OGTT: 30 minutes after OGTT (glucose 4 g/kg orally) after the 5th dose; for Glucose blood concentration, After treatment (one dose daily for 5 days): MKH 4 mg/kg, stevioside 20 mg/kg orally per day, before OGTT; for Glucose blood concentration, Before treatment: baseline of the group before treatment
# Description: as §7, §8, §1, §2
# diabetic Wistar rats = assay: Blood glucose and OGTT after 5 days oral treatment, alloxan-diabetic rats; conditions: for Glucose blood concentration, After OGTT / Glucose blood concentration, After treatment (one dose daily for 5 days) / Glucose blood concentration, Before treatment: diabetic Wistar rats (alloxan), n = 8; for Glucose blood concentration, After OGTT: 30 minutes after OGTT (glucose 4 g/kg orally) after the 5th dose; for Glucose blood concentration, After treatment (one dose daily for 5 days): MKH 4 mg/kg, stevioside 20 mg/kg orally per day, before OGTT; for Glucose blood concentration, Before treatment: baseline of the group before treatment; for Effect on glucose levels under increased glucose loading during the OGTT (in words): substances given alone, rat group not given
# Description: as §7, §8, §1, §9, §2
# normoglycaemic rats [6] = assay: C peptide serum concentration, normoglycaemic rats; conditions: for Effect on C peptide levels (in words): non-diabetic rats, 5 days treatment; for C peptide serum concentration: normoglycaemic rats, doses daily for 5 days orally, n = 8
# Description: as §7, §8, §1, §2, §3, §4
# [7] = 7 days treatment, MKH 2 mg/kg, lovastatin 20 mg/kg orally
SMILES,HDL cholesterol (diabetic rats [1]),LDL cholesterol (diabetic rats [1]),LDL/HDL ratio (diabetic rats [1]),Total cholesterol (diabetic rats [1]),Change in total cholesterol (in words) (diabetic rats [1]),Change in HDL levels (in words) (diabetic rats [1]; [7]),Change in HDL serum cholesterol concentration (in words) (normoglycaemic rats [2]),Change in LDL serum cholesterol concentration versus control (in words) (normoglycaemic rats [2]),Change in total cholesterol serum concentration (in words) (normoglycaemic rats [2]),HDL serum cholesterol concentration (normoglycaemic rats [2]),LDL serum cholesterol concentration (normoglycaemic rats [2]),Serum total cholesterol concentration (normoglycaemic rats [2]),LDL:HDL Ratio (ratios of means) (normoglycaemic rats [2]),C peptide serum concentration (diabetic rats [3]),Change in LDL cholesterol levels (in words) (diabetic rats [4]; 5 days treatment),Change in total cholesterol serum concentration (in words) (diabetic rats [4]; 5 days treatment),HDL cholesterol serum concentration (diabetic rats [4]),LDL cholesterol serum concentration (diabetic rats [4]),Serum total cholesterol concentration (diabetic rats [4]),LDL:HDL Ratio (ratios of means) (diabetic rats [4]),further results
"CC[C@H](C)C(=O)O[C@H]1C[C@@H](C)C=C2C=C[C@H](C)[C@H](CC[C@@H]3C[C@@H](O)CC(=O)O3)[C@H]21 [Lovastatin, reference compound]",0.74 ± 0.16 mmol/L,0.09 ± 0.17 mmol/L,0.15 ± 0.29,1.19 ± 0.06 mmol/L,reduced total cholesterol by a similar amount,reduced HDLs significantly,,,,,,,,,,,,,,,
C=C1C[C@@]23CC[C@H]4[C@@](C)(CCC[C@@]4(C)C(=O)O[C@@H]4O[C@H](CO)[C@@H](O)[C@H](O)[C@H]4O)[C@@H]2CC[C@]1(O[C@@H]1O[C@H](CO)[C@@H](O)[C@H](O)[C@H]1O[C@@H]1O[C@H](CO)[C@@H](O)[C@H](O)[C@H]1O)C3 [Stevioside],,,,,,,no significant changes,significantly decreased (one third of control values),no significant changes,0.78 ± 0.18 mmol/L,0.1 ± 0.08 mmol/L,1.1 ± 0.30 mmol/L,0.13,230.12 ± 28.45 pmol/L,highly significant decrease,no significant changes,0.85 ± 0.20 mmol/L,0.42 ± 0.09 mmol/L,1.39 ± 0.31 mmol/L,0.49,"Effect on C-peptide (in words) (diabetic rats [3]; 5 days treatment): significant increases; Glucose blood concentration, After OGTT [5]: 11.4 ± 2.9 mmol/L; Glucose blood concentration, After treatment (one dose daily for 5 days) [5]: 5.47 ± 0.67 mmol/L; Glucose blood concentration, Before treatment [5]: 6.95 ± 0.99 mmol/L; Glucose blood concentration, After OGTT (diabetic Wistar rats): 28.03 ± 1.08 mmol/L; Glucose blood concentration, After treatment (one dose daily for 5 days) (diabetic Wistar rats): 22.53 ± 1.07 mmol/L; Glucose blood concentration, Before treatment (diabetic Wistar rats): 25.14 ± 1.87 mmol/L; Effect on glucose levels under increased glucose loading during the OGTT (in words) (diabetic Wistar rats): beneficial effects; Effect on C peptide levels (in words) (normoglycaemic rats [6]): Neither stevioside or 3α,7α-dihydroxy-12-oxo-5β-cholanate alone had statistically significant effects; C peptide serum concentration (normoglycaemic rats [6]): 294 ± 93.2 pmol/L"
"C[C@H](CCC(=O)[O-])[C@H]1CC[C@H]2[C@@H]3[C@H](O)C[C@@H]4C[C@H](O)CC[C@]4(C)[C@H]3CC(=O)[C@]12C.[Na+] [MKH, Sodium salt of 3α,7α-dihydroxy-12-oxo-5β-cholanate]",0.89 ± 0.14 mmol/L,0.03 ± 0.04 mmol/L,0.04 ± 0.04,1.21 ± 0.14 mmol/L,reduced total cholesterol by a similar amount,this effect was not observed; also recorded: did not do so,no significant changes,significantly decreased (one third of control values),no significant changes,0.73 ± 0.20 mmol/L,0.11 ± 0.04 mmol/L,0.99 ± 0.30 mmol/L,0.01,178.38 ± 34.25 pmol/L,decreases in LDL levels and while these were not statistically significant,no significant changes,0.50 ± 0.12 !! mmol/l,0.56 ± 0.17 mmol/L,1.03 ± 0.26 mmol/L,1.12,"Change in LDL levels (in words) (diabetic rats [1]; [7]): very highly significant decrease; also recorded: significantly greater than that achieved by Lovastatin; Change in LDL:HDL ratio (in words) (diabetic rats [1]; Day 7): significant decrease; Change in LDL:HDL ratio (in words) (diabetic rats [4]; 5 days treatment): slight increase; Change in HDL levels (in words) (diabetic rats [4]; 5 days treatment, MKH 4 mg/kg): A decrease was observed; Glucose blood concentration, After OGTT [5]: 8.52 ± 3.19 mmol/L; Glucose blood concentration, After treatment (one dose daily for 5 days) [5]: 5.42 ± 1.15 mmol/L; Glucose blood concentration, Before treatment [5]: 6.82 ± 2.15 mmol/L; Glucose blood concentration, After OGTT (diabetic Wistar rats): 27.05 ± 1.17 mmol/L; Glucose blood concentration, After treatment (one dose daily for 5 days) (diabetic Wistar rats): 22.34 ± 1.15 x mmol/L; Glucose blood concentration, Before treatment (diabetic Wistar rats): 24.73 ± 2.15 mmol/L; Effect on glucose levels before and after the OGTT (in words) (diabetic Wistar rats; diabetic rats, 5 days treatment): significant decrease; Effect on glucose levels under increased glucose loading during the OGTT (in words) (diabetic Wistar rats): beneficial effects; Effect on C peptide levels (in words) (normoglycaemic rats [6]): Neither stevioside or 3α,7α-dihydroxy-12-oxo-5β-cholanate alone had statistically significant effects; C peptide serum concentration (normoglycaemic rats [6]): 230.87 ± 80.64 pmol/L"
